Measured values: paper PMC3369218 (Biochemistry, 2012)
Like-named read-outs stand apart in the source and are kept apart here.

Tests used:
[1] = target: WT DaCld (Dechloromonas aromatica, UniProt Q47CX0); experiment: Equilibrium binding of ligands, spectrophotometric titration, WT DaCld
[2] = target: DaCld(R183K) (Dechloromonas aromatica, UniProt Q47CX0, R217K); experiment: biochemical; type: binding
[3] = target: DaCld(R183Q) (Dechloromonas aromatica, UniProt Q47CX0, R217Q); experiment: biochemical; type: binding
Chain of DaCld(R183Q) (Q47CX0 35-282 R217Q): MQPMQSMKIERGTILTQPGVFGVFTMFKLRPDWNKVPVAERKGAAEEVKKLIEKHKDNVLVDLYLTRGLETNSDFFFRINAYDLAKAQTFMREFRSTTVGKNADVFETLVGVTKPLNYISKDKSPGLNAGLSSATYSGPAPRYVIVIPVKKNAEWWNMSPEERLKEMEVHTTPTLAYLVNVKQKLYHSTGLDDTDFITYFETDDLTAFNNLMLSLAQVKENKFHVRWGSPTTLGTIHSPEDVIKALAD

[4] = target: DaCld(R183A) (Dechloromonas aromatica, UniProt Q47CX0, R217A); experiment: biochemical; type: binding
Chain of DaCld(R183A) (Q47CX0 35-282 R217A): as the sequence (Q47CX0 35-282 R217Q) above, with Q183A counted along it

[5] = cited from earlier work

Chain of WT DaCld (Q47CX0 32-282): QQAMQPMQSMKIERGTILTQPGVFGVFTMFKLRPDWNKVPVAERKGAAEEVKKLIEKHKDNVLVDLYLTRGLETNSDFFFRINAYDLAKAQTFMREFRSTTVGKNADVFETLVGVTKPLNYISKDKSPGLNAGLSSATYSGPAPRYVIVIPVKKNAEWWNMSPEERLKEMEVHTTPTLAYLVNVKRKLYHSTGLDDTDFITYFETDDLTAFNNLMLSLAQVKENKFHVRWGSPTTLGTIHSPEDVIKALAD
Chain of DaCld(R183K) (Q47CX0 35-282 R217K): as the sequence (Q47CX0 35-282 R217Q) above, with Q183K counted along it

Q: With `[N-]=[N+]=[N-]` [N3^–, azide] as the molecule, how does the Kd ([1]; read-out: Maximal KD, pH 7) read?
A: Its Kd is 8.3 ± 0.1 µM.

Q: With `c1c[nH]cn1` [imidazole] as the molecule, how does the Kd [1] read?
A: The Kd was 9.6 ± 0.3 µM.

Q: What about the Kd [2] of the same molecule?
A: The Kd was 18 ± 1 µM.

Q: What about the Kd [3] of the same molecule?
A: Its Kd is 27 ± 1 µM.

Q: And the “pKa1 of pKD versus pH curve” value [3]?
A: Its value is 6.7 ± 0.1.

Q: And the Kd [4]?
A: The Kd was 21 ± 1 µM.

Q: And the “pKa1 of pKD versus pH curve” value [4]?
A: Its value is 6.8 ± 0.1.

Q: With Myoglobin as the molecule, how does the reduction potential [5] read?
A: The reduction potential was 46 mV.
